Measured values taken from patent EP3521435A1, “A HIGH STRINGENCY SELECTION SYSTEM FOR PROTEIN EXPRESSION IN PROLINE-AUXOTROPHIC CELLS” (Bayer AG, priority 2018, dated 2019).

Test system: CHO-K1 cells
Assay: Batch fermentation in shake flasks of human IgG1 expressing stable cell populations (Poros A-HPLC titer, viable cell density, viability)
Type: cell-based, Chinese hamster
Conditions: pJF1576
[1] = Day 2 after inoculation, selected in CD-Fusion w/o Pro + 0.05 mM DHP, non-selecting conditions
[2] = Day 2 after inoculation, selected in CD-Fusion w/o Pro + 0.1 mM DHP, non-selecting conditions
[3] = Day 2 after inoculation, selected in CD-Fusion w/o Pro + 0.2 mM DHP, non-selecting conditions
[4] = Day 2 after inoculation, selected in CD-Fusion w/o Pro + 0.4 mM DHP, non-selecting conditions
[5] = Day 3 after inoculation, selected in CD-Fusion w/o Pro + 0.05 mM DHP, selective conditions
[6] = Day 3 after inoculation, selected in CD-Fusion w/o Pro + 0.1 mM DHP, selective conditions
[7] = Day 3 after inoculation, selected in CD-Fusion w/o Pro + 0.2 mM DHP, selective conditions
[8] = Day 3 after inoculation, selected in CD-Fusion w/o Pro + 0.4 mM DHP, selective conditions
[9] = Day 4 after inoculation, selected in CD-Fusion w/o Pro + 0.05 mM DHP, non-selecting conditions
[10] = Day 4 after inoculation, selected in CD-Fusion w/o Pro + 0.1 mM DHP, non-selecting conditions
[11] = Day 4 after inoculation, selected in CD-Fusion w/o Pro + 0.2 mM DHP, non-selecting conditions
[12] = Day 4 after inoculation, selected in CD-Fusion w/o Pro + 0.4 mM DHP, non-selecting conditions
[13] = Day 5 after inoculation, selected in CD-Fusion w/o Pro + 0.05 mM DHP, selective conditions
[14] = Day 5 after inoculation, selected in CD-Fusion w/o Pro + 0.1 mM DHP, selective conditions
[15] = Day 5 after inoculation, selected in CD-Fusion w/o Pro + 0.2 mM DHP, selective conditions
[16] = Day 5 after inoculation, selected in CD-Fusion w/o Pro + 0.4 mM DHP, selective conditions
[17] = Day 7 after inoculation, selected in CD-Fusion w/o Pro + 0.05 mM DHP, non-selecting conditions
[18] = Day 7 after inoculation, selected in CD-Fusion w/o Pro + 0.05 mM DHP, selective conditions

Structure (SMILES): O=C(O)[C@@H]1C=CCN1 [DHP, 3,4-Dehydro-L-Proline]
- titer improvements (0.2 mM or 0.4 mM DHP as additional selection additives, human IgG1, non-selecting batch, #1 - #3 vs #6 & #7): 2-3 fold
- titer improvements as compared to Puromycin-based selections (DHP as additional selection agent in initial selections, human IgG1, batch under selective conditions): 2-3 fold
- Viability profile (Day 0 after inoculation, selected in CD-Fusion w/o Pro + 0.05 mM DHP, non-selecting conditions): 99.4%
- Viability profile (Day 0 after inoculation, selected in CD-Fusion w/o Pro + 0.05 mM DHP, selective conditions): 98.4%
- Viability profile (Day 0 after inoculation, selected in CD-Fusion w/o Pro + 0.1 mM DHP, non-selecting conditions): 99.0%
- Viability profile (Day 0 after inoculation, selected in CD-Fusion w/o Pro + 0.1 mM DHP, selective conditions): 97.5%
- Viability profile (Day 0 after inoculation, selected in CD-Fusion w/o Pro + 0.2 mM DHP, non-selecting conditions): 98.6%
- Viability profile (Day 0 after inoculation, selected in CD-Fusion w/o Pro + 0.2 mM DHP, selective conditions): 98.2%
- Viability profile (Day 0 after inoculation, selected in CD-Fusion w/o Pro + 0.4 mM DHP, non-selecting conditions): 96.3%
- Viability profile (Day 0 after inoculation, selected in CD-Fusion w/o Pro + 0.4 mM DHP, selective conditions): 99.7%
- Productivity profile (Day 2 after inoculation, human IgG1, selected in CD-Fusion w/o Pro + 0.05 mM DHP, non-selecting conditions): 9.8 mg/L
- Productivity profile (Day 2 after inoculation, human IgG1, selected in CD-Fusion w/o Pro + 0.05 mM DHP, selective conditions): 47.1 mg/L
- Productivity profile (Day 2 after inoculation, human IgG1, selected in CD-Fusion w/o Pro + 0.1 mM DHP, non-selecting conditions): 11.0 mg/L
- Productivity profile (Day 2 after inoculation, human IgG1, selected in CD-Fusion w/o Pro + 0.1 mM DHP, selective conditions): 37.5 mg/L
- Productivity profile (Day 2 after inoculation, human IgG1, selected in CD-Fusion w/o Pro + 0.2 mM DHP, non-selecting conditions): 11.3 mg/L
- Productivity profile (Day 2 after inoculation, human IgG1, selected in CD-Fusion w/o Pro + 0.2 mM DHP, selective conditions): 34.4 mg/L
- Productivity profile (Day 2 after inoculation, human IgG1, selected in CD-Fusion w/o Pro + 0.4 mM DHP, non-selecting conditions): 11.3 mg/L
- Productivity profile (Day 2 after inoculation, human IgG1, selected in CD-Fusion w/o Pro + 0.4 mM DHP, selective conditions): 39.4 mg/L
- Viability profile [1]: 98.9%
- Viable cell density profile [1]: 6,1E+05 VCD/ml
- Viability profile [2]: 99.3%
- Viable cell density profile [2]: 7,9E+05 VCD/ml
- Viability profile [3]: 99.2%
- Viable cell density profile [3]: 6,4E+05 VCD/ml
- Viability profile [4]: 99.3%
- Viable cell density profile [4]: 8,0E+05 VCD/ml
- Viability profile [5]: 99.3%
- Viable cell density profile [5]: 5.6E+06 VCD/ml
- Viability profile [6]: 99.4%
- Viable cell density profile [6]: 7.4E+06 VCD/ml
- Viability profile [7]: 99.1%
- Viable cell density profile [7]: 2.4E+06 VCD/ml
- Viability profile [8]: 99.3%
- Viable cell density profile [8]: 5.3E+06 VCD/ml
- Productivity profile (Day 4 after inoculation, human IgG1, selected in CD-Fusion w/o Pro + 0.05 mM DHP, non-selecting conditions): 24.2 mg/L
- Productivity profile (Day 4 after inoculation, human IgG1, selected in CD-Fusion w/o Pro + 0.05 mM DHP, selective conditions): 114.8 mg/L
- Productivity profile (Day 4 after inoculation, human IgG1, selected in CD-Fusion w/o Pro + 0.1 mM DHP, non-selecting conditions): 31.7 mg/L
- Productivity profile (Day 4 after inoculation, human IgG1, selected in CD-Fusion w/o Pro + 0.1 mM DHP, selective conditions): 83.8 mg/L
- Productivity profile (Day 4 after inoculation, human IgG1, selected in CD-Fusion w/o Pro + 0.2 mM DHP, non-selecting conditions): 34.6 mg/L
- Productivity profile (Day 4 after inoculation, human IgG1, selected in CD-Fusion w/o Pro + 0.2 mM DHP, selective conditions): 104.8 mg/L
- Productivity profile (Day 4 after inoculation, human IgG1, selected in CD-Fusion w/o Pro + 0.4 mM DHP, non-selecting conditions): 41.0 mg/L
- Productivity profile (Day 4 after inoculation, human IgG1, selected in CD-Fusion w/o Pro + 0.4 mM DHP, selective conditions): 105.5 mg/L
- Viability profile [9]: 99.8%
- Viable cell density profile [9]: 5,3E+06 VCD/ml
- Viability profile [10]: 99.7%
- Viable cell density profile [10]: 6,5E+06 VCD/ml
- Viability profile [11]: 99.5%
- Viable cell density profile [11]: 5,2E+06 VCD/ml
- Viability profile [12]: 99.6%
- Viable cell density profile [12]: 6,1E+06 VCD/ml
- Viability profile [13]: 96.4%
- Viable cell density profile [13]: 9.5E+06 VCD/ml
- Viability profile [14]: 97.5%
- Viable cell density profile [14]: 1.2E+07 VCD/ml
- Viability profile [15]: 98.9%
- Viable cell density profile [15]: 6.9E+06 VCD/ml
- Viability profile [16]: 96.1%
- Viable cell density profile [16]: 1.1E+07 VCD/ml
- Productivity profile (Day 7 after inoculation, human IgG1, selected in CD-Fusion w/o Pro + 0.05 mM DHP, non-selecting conditions): 48.6 mg/L
- Productivity profile (Day 7 after inoculation, human IgG1, selected in CD-Fusion w/o Pro + 0.05 mM DHP, selective conditions): 166.2 mg/L
- Productivity profile (Day 7 after inoculation, human IgG1, selected in CD-Fusion w/o Pro + 0.1 mM DHP, non-selecting conditions): 104.4 mg/L
- Productivity profile (Day 7 after inoculation, human IgG1, selected in CD-Fusion w/o Pro + 0.1 mM DHP, selective conditions): 125.8 mg/L
- Productivity profile (Day 7 after inoculation, human IgG1, selected in CD-Fusion w/o Pro + 0.2 mM DHP, non-selecting conditions): 87.4 mg/L
- Productivity profile (Day 7 after inoculation, human IgG1, selected in CD-Fusion w/o Pro + 0.2 mM DHP, selective conditions): 179.7 mg/L
- Productivity profile (Day 7 after inoculation, human IgG1, selected in CD-Fusion w/o Pro + 0.4 mM DHP, non-selecting conditions): 116.4 mg/L
- Productivity profile (Day 7 after inoculation, human IgG1, selected in CD-Fusion w/o Pro + 0.4 mM DHP, selective conditions): 133.4 mg/L
- Viability profile [17]: 98.6%
- Viable cell density profile [17]: 1,0E+07 VCD/ml
- Viability profile [18]: 45.3%
- Viable cell density profile [18]: 4.6E+06 VCD/ml
